Experimental data: patent publication US9988379B2, “GPR40 receptor agonist, methods of preparing the same, and pharmaceutical compositions containing the same as an active agent” (LG CHEM, LTD., priority 2012, dated 2018)

Target: T1, human GPR40 (Homo sapiens, UniProt O14842)
T1 construct: expressed in transfected cells; host or cells: CHO-K1
Experiment: Induction of Ca2+ (calcium flux assay) using human GPR40 expression cell line
Assay type: cell-based
Settings: read-out: EC0.5
Description: Evaluation of the Test Compounds for Induction of Ca^2+ Using Human GPR40 Expression Cell Line
The cell line expressing human GPR40 was generated by transfection of the GPR40 expression vector into CHO-K1 cell, and used in the following calcium flux assay.
The cell line was cultured in cell-culture medium (F-12 (Invitrogen) supplemented with 10% (v/v) FBS (Fetal Bovine Serum; Invitrogen), 0.5 mg/ml Geneticin (Invitrogen) and 1% (v/v) Antibiotic-Antimycotic solution (Invitrogen)) under the condition of 5% CO2 and 37° C. For calcium flux assay, the cells were diluted with the cell-culture medium to a concentration of 5×10^5 cells/ml, and the diluted cell suspension was dispensed in amount of 100 μl/well to a 96-well transparent bottom black polystyrene cell culture plate (Corning) and then cultured for 24 hours. The following concentrations of test compounds were added to these cells, and then the changes in intracellular calcium concentration were measured by FlexStation II384 (Molecular Devices). The following solution was prepared before the measurement.
First, a buffer solution for assay was prepared for use in the manufacture of fluorescent dye solution. This buffer solution was prepared by adding 1M HEPES solution (Invitrogen) to HBSS (Hanks' Balanced Salt Solution) (Invitrogen) and then adding 1M NaOH (Nacalai Tesque) to adjust pH to 7.4. Then the fluorescent dye solution was prepared according to the manufacturer's instruction attached to Calcium 5 Assay Kit (Molecular Devices), and the final DMSO concentration was adjusted to 2%.
The fluorescent dye solution was added in an amount of 100 μl/well to supernatant of the cell culture plate cultured for 24 hours. The plate was cultured for 1 hour under the condition of 5% CO2 and 37° C. so that the fluorescent dye was inserted into the cell.
Test compounds (i.e., the compounds prepared in the Examples) dissolved in dimethyl sulfoxide (DMSO ACROS) were diluted 200-fold in the buffer solution for assay to prepare compound solutions corresponding to the respective concentrations. […] 50 μl of the prepared sample solutions was added to each well of 96-well polypropylene plates (NUNC), and thereby a compound plate was prepared. Finally, the compound plate and the cell culture plate cultured for 1 hour with the fluorescent dye were placed in FlexStation II384.
After the above pre-treatment, the change in the intracellular calcium concentration when each concentration of the test compound solutions was added at 50 μl was measured by FlexStation II^384.
Then, the relative activity values depending on the concentration of the compound were plotted using Prism 4 software (GraphPad) to calculate the EC0.5 value.

T1 sequence (O14842 whole entry): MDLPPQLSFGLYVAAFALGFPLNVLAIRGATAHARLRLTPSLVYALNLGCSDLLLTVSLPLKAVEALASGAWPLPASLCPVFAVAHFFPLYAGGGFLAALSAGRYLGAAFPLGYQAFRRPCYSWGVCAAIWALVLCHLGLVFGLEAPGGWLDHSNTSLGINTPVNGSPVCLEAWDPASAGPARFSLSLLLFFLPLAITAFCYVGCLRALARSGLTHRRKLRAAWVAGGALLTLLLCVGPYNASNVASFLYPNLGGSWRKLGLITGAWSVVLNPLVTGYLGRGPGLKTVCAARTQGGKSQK

Compound | EC50
CC#C[C@@H](CC(=O)O)c1ccc(OCc2ccc3cn(Cc4ncccn4)nc3c2)cc1 [Example 69, (S)-3-[4-(2-pyrimidin-2-ylmethyl-2H-indazol-6-ylmethoxy]-phenyl}-hex-4-ynoic acid] | ≥ 500 nM
CC#C[C@@H](CC(=O)O)c1ccc(OCc2cccc3nn(Cc4ccc(F)cc4)cc23)cc1 [Example 72, (S)-3-{4-[2-(4-fluoro-benzyl)-2H-indazol-4-ylmethoxy]-phenyl}-hex-4-ynoic acid] | 30 nM
CC#C[C@@H](CC(=O)O)c1ccc(OCc2ccc3cn(Cc4cnc(C)cn4)nc3c2)cc1 [Example 74, (S)-3-{4-[2-(5-methyl-pyrazin-2-ylmethyl)-2H-indazol-6-ylmethoxy]-phenyl}-hex-4-ynoic acid] | ≥ 500 nM
CC#C[C@@H](CC(=O)O)c1ccc(OCc2cccc3nn(Cc4cnc(C)cn4)cc23)cc1 [Example 78, (S)-3-{4-[2-(5-methyl-pyrazin-2-ylmethyl)-2H-indazol-4-ylmethoxy]-phenyl}-hex-4-ynoic acid] | 50 to 500 nM
CC#C[C@@H](CC(=O)O)c1ccc(OCc2ccc3ccn(Cc4ccc(C)nc4)c3c2C)cc1 [Example 81, (S)-3-{4-[7-methyl-1-(6-methyl-pyridin-3-ylmethyl)-1H-indol-6-ylmethoxy]-phenyl}-hex-4-ynoic acid] | 1 to 50 nM
Cc1c(COc2ccc([C@H](CC(=O)O)c3ccon3)cc2)ccc2ccn(Cc3ccccc3)c12 [Example 83, (S)-3-[4-(1-benzyl-7-methyl-1H-indol-6-ylmethoxy)-phenyl]-3-isoxazol-3-yl-propanoic acid] | 10 nM
Cc1c(COc2ccc([C@H](CC(=O)O)c3ccon3)cc2)ccc2ccn(Cc3ccc(F)cc3)c12 [Example 84, (S)-3-{4-[1-(4-fluoro-benzyl)-7-methyl-1H-indol-6-ylmethoxy]-phenyl}-3-isoxazol-3-yl-propanoic acid] | 50 nM

Next, values leading:

EC50 | Compound
50 to 500 nM | CC#C[C@@H](CC(=O)O)c1ccc(OCc2ccc3cnn(Cc4cnccn4)c3c2)cc1 [Example 70, (S)-3-[4-(1-pyrazin-2-ylmethyl-1H-indazol-6-ylmethoxy]-phenyl}-hex-4-ynoic acid]
20 nM | CC#C[C@@H](CC(=O)O)c1ccc(OCc2cccc3c2cnn3Cc2ccc(F)cc2)cc1 [Example 71, (S)-3-{4-[1-(4-fluoro-benzyl)-1H-indazol-4-ylmethoxy]-phenyl}-hex-4-ynoic acid]
50 to 500 nM | CC#C[C@@H](CC(=O)O)c1ccc(OCc2ccc3cnn(Cc4cnc(C)cn4)c3c2)cc1 [Example 73, (S)-3-{4-[1-(5-methyl-pyrazin-2-ylmethyl)-1H-indazol-6-ylmethoxy]-phenyl}-hex-4-ynoic acid]
50 to 500 nM | CC#C[C@@H](CC(=O)O)c1ccc(OCc2ccc3cnn(Cc4ccncn4)c3c2)cc1 [Example 75, (S)-3-[4-(1-pyrimidin-4-ylmethyl-1H-indazol-6-ylmethoxy)-phenyl]-hex-4-ynoic acid]
≥ 500 nM | CC#C[C@@H](CC(=O)O)c1ccc(OCc2ccc3cn(Cc4ccncn4)nc3c2)cc1 [Example 76, (S)-3-[4-(2-pyrimidin-4-ylmethyl-2H-indazol-6-ylmethoxy]-phenyl}-hex-4-ynoic acid]
1 to 50 nM | CC#C[C@@H](CC(=O)O)c1ccc(OCc2ccc3cnn(Cc4cccnc4)c3c2)cc1 [Example 79, (S)-3-[4-(1-pyridin-3-ylmethyl-1H-indazol-6-ylmethoxy)-phenyl]-hex-4-ynoic acid]
≥ 500 nM | CC#C[C@@H](CC(=O)O)c1ccc(OCc2ccc3cn(Cc4cccnc4)nc3c2)cc1 [Example 80, (S)-3-[4-(2-pyridin-3-ylmethyl-2H-indazol-6-ylmethoxy)-phenyl]-hex-4-ynoic acid]
50 to 500 nM | CC#C[C@@H](CC(=O)O)c1ccc(OCc2ccc3cnn(Cc4cnn(C)c4)c3c2)cc1 [Example 82, (S)-3-{4-[1-(1-methyl-1H-pyrazol-4-ylmethyl)-1H-indazol-6-ylmethoxy]-phenyl}-hex-4-ynoic acid]
